Legend:
human BTK = human BTK (Homo sapiens (Human), UniProt Q06187); experiment: BTK LANTHASCREEN Eu Kinase Binding Assay; conditions: IC50 value ± standard deviation; full-length His-labeled BTK, kinase tracer 236; read-out: hBTK Rel IC50
Protocol: (§1) BTK and EGFR in Vitro Assays:
(§2) The BTK and EGFR biochemical assays utilize LANTHASCREEN® Eu Kinase Binding Assays from Thermo Fisher Scientific, measuring the binding of the kinase with a […] tracer. The assay buffer consists of 50 mM HEPES pH 7.5, 0.01% BRU™-35, 10 mM MgCl2, 1 mM EGTA, and 1 mM DTT. The test compounds are diluted and added to the assay plate with a Labcyte ECHO® 555 liquid handler. The compounds are tested in 10 point dose response curves (100 μM-0.005 μM) with a maximum DMSO concentration of 1%. The assays are performed in 20 μL in low-volume 384-well white proxiplates. For the BTK assay, the concentration of full-length His-labeled BTK in the assay is 5 nM, the Eu-anti-His antibody is 2 nM, and the kinase tracer 236 is 60 nM. For the EGFR assay, the concentration of truncated (amino acids 668-1210) GST-labeled EGFR is 5 nM, the Eu-anti-GST antibody is 2 nM, and the kinase tracer 199 is 10 nM. The components of the assay (compound, enzyme/antibody, tracer) are assembled and incubated for 30 min prior to being read on a Perkin-Elmer EnVision with excitation at 340 nm, tracer emission at 665 nm, and antibody emission at 615 nm. The signal ratio is converted to percent inhibition using the following equation: % Inhibition=100−[(Test Compound−Median Minimum)/(Median Maximum−Median Minimum)×100].
(§3) The following Table 1 and Table 2 describes the relative IC50 data vs. human BTK, human EGFR, and human whole blood CD69.

human EGFR = human EGFR (Homo sapiens (Human), UniProt P00533); experiment: EGFR LANTHASCREEN Eu Kinase Binding Assay; conditions: IC50 value ± standard deviation; truncated GST-labeled EGFR, kinase tracer 199; read-out: hEGFR Rel IC50
Sequence of human EGFR (P00533 668-1210): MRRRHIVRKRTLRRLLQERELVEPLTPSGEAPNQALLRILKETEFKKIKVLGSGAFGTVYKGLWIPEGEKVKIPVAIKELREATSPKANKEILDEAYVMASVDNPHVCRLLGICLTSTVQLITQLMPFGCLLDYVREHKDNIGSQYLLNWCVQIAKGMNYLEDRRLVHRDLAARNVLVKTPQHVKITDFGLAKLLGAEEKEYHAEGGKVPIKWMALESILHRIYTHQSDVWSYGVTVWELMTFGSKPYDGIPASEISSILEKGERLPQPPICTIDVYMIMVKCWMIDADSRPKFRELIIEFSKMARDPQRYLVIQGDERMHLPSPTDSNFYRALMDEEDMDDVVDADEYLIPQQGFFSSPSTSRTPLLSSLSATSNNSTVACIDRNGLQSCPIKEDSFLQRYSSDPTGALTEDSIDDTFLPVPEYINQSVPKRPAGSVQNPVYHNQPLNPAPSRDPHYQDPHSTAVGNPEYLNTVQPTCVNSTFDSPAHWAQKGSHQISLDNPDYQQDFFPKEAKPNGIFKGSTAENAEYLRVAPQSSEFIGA
Protocol: as §1, §2

[1] = system: activated B cells in human whole blood (CD69); experiment: Human Whole Blood CD69 in vitro assay (B cell activation, flow cytometry); type: cell-based; conditions: IC50 value ± standard deviation, anti-human-IgD-Dextran stimulation, read-out: HWB CD69 Rel IC50
Protocol: Human Whole Blood CD69 in Vitro Assay:
The HWB CD69 assay measures activated B cells in human whole blood using a flow cytometer. Compounds are diluted and added to assay plates with a Labcyte ECHO® 555 liquid handler. Compounds are tested in 10 point dose response curves (20 μM-0.001 μM) in 96-well v-bottom plates with a maximum DMSO concentration of 0.2%. Fresh blood from individual healthy volunteer is mixed with HEPES (0.5 ml HEPES added per 10 ml blood) and 100 μl/well is added to compound plates. The plates are sealed and incubated in a 37° C. incubator for 3 h. Anti-human-IgD-Dextran is added to each well to give a final concentration of 100 ng/ml, mixed, and put back into the incubator. After 1 h, the cells are washed with cold FACS buffer and transferred to a deep well plate. The cells are incubated with anti-human CD69-PE (BIOLEGEND®, clone FN50) and anti-human CD19-APC (BIOLEGEND®, clone HIB19) antibodies on ice for 20 min. The cells are washed and incubated in eBioscience™ 1-step Fix/Lyse solution (10×) at RT to lyse the red blood cells and fix the other cells. The white cells are pelleted and washed in FACS buffer and then brought up in read buffer. The suspended cells are transferred to 96-well round bottom plates and read on an IntelliCyt iQue® Screener Plus flow cytometer. From the SSC (Side Scatter Channel) vs FSC (Forward Scatter Channel) graph, the lymphocytes are identified. Lymphocytes are identified with gated on positive CD19 marker for quantify CD69 (a marker of activated B lymphocytes) MFI (mean fluorescent intensity/cell). The signal ratio is converted to percent inhibition using the following equation: % Inhibition=100−[(Test Compound−Median Min)/(Median Max−Median Min)×100].
as §3

Sequence of human BTK (Q06187 whole entry): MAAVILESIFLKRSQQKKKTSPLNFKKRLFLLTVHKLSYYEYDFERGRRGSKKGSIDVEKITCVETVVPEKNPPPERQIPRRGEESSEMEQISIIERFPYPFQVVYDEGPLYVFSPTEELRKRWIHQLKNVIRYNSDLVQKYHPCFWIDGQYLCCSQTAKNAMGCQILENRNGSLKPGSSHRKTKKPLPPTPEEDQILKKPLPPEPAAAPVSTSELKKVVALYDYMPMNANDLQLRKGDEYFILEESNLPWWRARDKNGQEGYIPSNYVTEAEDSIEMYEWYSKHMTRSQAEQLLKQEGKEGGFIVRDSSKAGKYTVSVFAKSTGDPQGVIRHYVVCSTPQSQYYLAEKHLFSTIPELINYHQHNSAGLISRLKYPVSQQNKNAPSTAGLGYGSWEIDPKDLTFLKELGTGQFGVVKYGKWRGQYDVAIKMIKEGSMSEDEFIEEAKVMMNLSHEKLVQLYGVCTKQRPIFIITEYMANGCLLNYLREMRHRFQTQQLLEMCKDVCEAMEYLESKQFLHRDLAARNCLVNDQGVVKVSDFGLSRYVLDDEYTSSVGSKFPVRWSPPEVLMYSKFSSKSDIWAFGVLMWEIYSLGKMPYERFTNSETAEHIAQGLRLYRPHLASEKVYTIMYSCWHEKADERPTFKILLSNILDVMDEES

Compound | IC50 (human BTK) [nM] | IC50 (human EGFR) [nM] | IC50 [1] [nM]
C=CC(=O)N1C[C@@H](Nc2cncc(-c3cnc(Oc4cccc(Cl)c4)nc3)n2)[C@@H]1C (single isomer, unassigned; isomer 1) [Example 32] | 6.88 ± 1.37 | 194 ± 47.9 | 135 ± 66.5
C=CC(=O)N1CC(Nc2cncc(-c3cnc(Oc4cccc(Cl)c4F)nc3)c2)C1 [Example 2, 1-[3-[[5-[2-(3-chloro-2-fluoro-phenoxy)pyrimidin-5-yl]-3-pyridyl]amino]azetidin-1-yl]prop-2-en-1-one] | 6.89 ± 2.62 | 121 ± 66.4 | 141 ± 41.3
C=CC(=O)N1CC(Nc2cncc(-c3cnc(Oc4cccc(C#N)c4)nc3)c2)C1 [Example 3, 3-[5-[5-[(1-prop-2-enoylazetidin-3-yl)amino]-3-pyridyl]pyrimidin-2-yl]oxybenzonitrile] |  |  | 595 ± 326
C=CC(=O)N1CC(Nc2cncc(-c3cnc(Oc4cccc(OC(F)F)c4)nc3)c2)C1 [Example 4, 1-[3-[[5-[2-[3-(difluoromethoxy)phenoxy]pyrimidin-5-yl]-3-pyridyl]amino]azetidin-1-yl]prop-2-en-1-one] | 9.98 ± 4.3 | 872 ± 456 | 110 ± 79.4
C=CC(=O)N1CC[C@H](Nc2cncc(-c3cnc(Oc4cccc(Cl)c4)nc3)c2)C1 [Example 6, 1-[(3S)-3-[[5-[2-(3-chlorophenoxy)pyrimidin-5-yl]-3-pyridyl]amino]pyrrolidin-1-yl]prop-2-en-1-one] | 72.4 ± 4.22 | 5180 ± 441 | 671 ± 236
C=CC(=O)N1CC(Nc2cncc(-c3cnc(Oc4cccc(Cl)c4)nc3)c2)C1 [Example 7, 1-[3-[[5-[2-(3-chlorophenoxy)pyrimidin-5-yl]-3-pyridyl]amino]azetidin-1-yl]prop-2-en-1-one] | 9.73 ± 2.01 | 129 ± 55.3 | 180 ± 46
C=CC(=O)N1CC(Nc2cncc(-c3cnc(Oc4cccc(C(F)(F)F)c4)nc3)c2)C1 [Example 8, 1-[3-[[5-[2-[3-(trifluoromethyl)phenoxy]pyrimidin-5-yl]-3-pyridyl]amino]azetidin-1-yl]prop-2-en-1-one] | 23.1 ± 0.0341 | 724 ± 375 | 239 ± 34.5
C=CC(=O)N1CC(Nc2cncc(-c3cnc(Oc4ccc(F)c(OC(F)F)c4)nc3)c2)C1 [Example 9, 1-[3-[[5-[2-[3-(difluoromethoxy)-4-fluoro-phenoxy]pyrimidin-5-yl]-3-pyridyl]amino]azetidin-1-yl]prop-2-en-1-one] | 60.6 ± 0.351 | 3760 ± 1400 | 655 ± 295
C=CC(=O)N1CC(Nc2cncc(-c3cnc(Oc4cccc(OC(F)(F)F)c4)nc3)c2)C1 [Example 10, 1-[3-[[5-[2-[3-(trifluoromethoxy)phenoxy]pyrimidin-5-yl]-3-pyridyl]amino]azetidin-1-yl]prop-2-en-1-one] | 34.5 ± 8.08 |  | 263 ± 129
C=CC(=O)N1CC(Nc2cncc(-c3cnc(Oc4cccc(F)c4)nc3)c2)C1 [Example 11, 1-[3-[[5-[2-(3-fluorophenoxy)pyrimidin-5-yl]-3-pyridyl]amino]azetidin-1-yl]prop-2-en-1-one] | 18.1 ± 3.05 | 644 ± 61.8 | 242 ± 91.2
C=CC(=O)N1CC(C)(Nc2cncc(-c3cnc(Oc4cccc(Cl)c4)nc3)c2)C1 [Example 12, 1-[3-[[5-[2-(3-chlorophenoxy)pyrimidin-5-yl]-3-pyridyl]amino]-3-methyl-azetidin-1-yl]prop-2-en-1-one] | 6.95 ± 0.395 | 509 ± 246 | 200 ± 52.4
C=CC(=O)N1CC[C@H](Nc2cncc(-c3cnc(Nc4cccc(OC(F)F)c4)nc3)c2)C1 [Example 16, (S)-1-(3-((5-(2-((3-(difluoromethoxy)phenyl)amino)pyrimidin-5-yl)pyridin-3-yl)amino)pyrrolidin-1-yl)prop-2-en-1-one] |  |  | 118 ± 56
C=CC(=O)N1CC[C@H](Nc2cncc(-c3cnc(Nc4cccc(C)n4)nc3)c2)C1 [Example 17, 1-{(3S)-3-[(5-{2-[(6-methylpyridin-2-yl)amino]pyrimidin-5-yl}pyridin-3-yl)amino]pyrrolidin-1-yl}prop-2-en-1-one] |  |  | 242 ± 64.3
